These results are taken from PMC10762035, “Molecular basis of human trace amine-associated receptor 1 activation” (Nature Communications, 2024).

“And” between values parts separate entries of the source, which are not always exact repeats. Equal values may be shown once. Where a name gives a salt, the structure may show the parent alone. Read-outs that look alike come from different tables or passages of the source.

For the assay, the target named is T1, hTA1 (Homo sapiens, UniProt Q96RJ0).
T1 construct: expressed in transfected cells; host or cells: HEK293T
T1 sequence (Q96RJ0 1-339): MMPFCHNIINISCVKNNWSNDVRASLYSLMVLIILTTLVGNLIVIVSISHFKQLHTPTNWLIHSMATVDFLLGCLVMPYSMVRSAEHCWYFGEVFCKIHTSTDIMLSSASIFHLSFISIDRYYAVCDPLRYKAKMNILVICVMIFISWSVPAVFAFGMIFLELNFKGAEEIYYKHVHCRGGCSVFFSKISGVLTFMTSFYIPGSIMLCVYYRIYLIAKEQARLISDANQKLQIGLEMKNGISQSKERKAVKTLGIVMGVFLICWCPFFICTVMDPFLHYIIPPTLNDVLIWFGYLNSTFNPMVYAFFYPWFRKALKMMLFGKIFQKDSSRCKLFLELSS
Nature of the assay: Screen of 89 aminergic compounds at 10 µM, cAMP accumulation in HEK293T cells.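 Also: HEK293T cells co-transfected with hTA1 and GloSensor cAMP reporter, cAMP accumulation detected by luminescence.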 It counts as cell-based.

Where [1] appears, read: quadruplicate values, screen at 10 µM.

As to `N.N.[Cl][Pt][Cl]` [Cisplatin], the “Luminescence for Screening Data” value under setting [1] was 5.8 and 6.4 and 6.9 and 6.2. Same read-out and setting: next, `CN(C)CCCC1(c2ccc(F)cc2)OCc2cc(C#N)ccc21` (stereo not shown) [Citalopram hydrobromide]: 6.1 and 6.2 and 7.2 and 6.9; `Cl.O=C1Nc2ccc(Cl)c3c2C1(CCCCN1CC=C(c2ccc(Cl)cc2)CC1)CCC3` (stereo not shown) [DR4485 hydrochloride]: 5.6 and 5.7 and 6.4 and 4.9. Still for that read-out and setting: the same measure for `CNCCCN1c2ccccc2CCc2ccccc21` [Desipramine]: 6 and 6.2 and 5.6 and 6.1; for `CC(C)[C@@]1(NC(=O)[C@@H]2C[C@@H]3c4cccc5[nH]cc(c45)C[C@H]3N(C)C2)O[C@@]2(O)[C@@H]3CCCN3C(=O)[C@H](Cc3ccccc3)N2C1=O` [Dihydroergocristine mesylate]: 5.9 and 6.4 and 5.1 and 5.2; for `CN1C[C@H](C(=O)N[C@]2(C)O[C@@]3(O)[C@@H]4CCCN4C(=O)[C@H](Cc4ccccc4)N3C2=O)C[C@@H]2c3cccc4[nH]cc(c34)C[C@H]21` [Dihydroergotamine mesylate]: 25.4 and 24.7 and 32.7 and 26.9. Still for that read-out and setting: the same measure for `Cl.N#Cc1ccc(N2CCN(C(=O)COc3ccc4[nH]cc(CCN)c4c3)CC2)cc1` [Donitriptan hydrochloride]: 9.4 and 7.6 and 8.3 and 7.4; for `N#Cc1c[nH]c2c(C(=O)N3CCN(CCc4ccc(F)cc4)CC3)cccc12` [EMD281014]: 4.2 and 3.9 and 4.4; for `Cc1[nH]c2ccc(Cl)cc2c1C1=CCNCC1` [EMD386088]: 14.2 and 14.9 and 14.6 and 13.7. On to `CCN(CC)C(=O)/C(C#N)=C/c1cc(O)c(O)c([N+](=O)[O-])c1` [Entacapone], for which the “Luminescence for Screening Data” value under setting [1] was 5.5 and 5.2 and 6.2 and 5.6. Same read-out and setting: the same measure for `Oc1cc(O)c2c(c1)O[C@H](c1cc(O)c(O)c(O)c1)[C@H](O)C2` [Epigallocatechin]: 5.2 and 5.7 and 5.9 and 6.3; for `O=C1Nc2ccc(Cl)cc2[C@@](C#CC2CC2)(C(F)(F)F)O1` [Evafirenz]: 3.7 and 4.1 and 4.4 and 4.6; for `CNc1ccc2c(CCN)cc(=O)oc2c1` [FFN206]: 12.7 and 12.5 and 12.8. Still for that read-out and setting: the same measure for `O=S1(=O)c2cccc3cccc(c23)N1CCCN1CCN(c2ccc(F)cc2)CC1` [Fananserin]: 4.9 and 5 and 4.3 and 5.2; for `CNCCC(Oc1ccc(C(F)(F)F)cc1)c1ccccc1` (stereo not shown) [Fluoxetine]: 8.5 and 7.5 and 8.1 and 6.5; for `Fc1ccc(C(OCCN2CCN(CCCc3ccccc3)CC2)c2ccc(F)cc2)cc1` [GBR12909]: 4.8 and 5.2 and 6.6 and 6.2.

Consider `Cl.O=c1[nH]oc2c1CCNC2` [Gaboxadol HCl], for which the “Luminescence for Screening Data” value under setting [1] is 7 and 8.2 and 5.3 and 6.3. On the same count and under the same terms, next, `O=C(CCCN1CCC(O)(c2ccc(Cl)cc2)CC1)c1ccc(F)cc1` [Haloperidol]: 7.4 and 8.8 and 6.8 and 6.9. With `O=C1c2ccccc2S(=O)(=O)N1CCCCN1CCN(c2ncccn2)CC1` [Ipsapirone], under setting [1], the “Luminescence for Screening Data” value is 6.8 and 5.5 and 5.4.

In the case of `CNC1(c2ccccc2Cl)CCCCC1=O` (stereo not shown) [Ketamine], the “Luminescence for Screening Data” value under setting [1] was 4.7 and 6.1 and 5.5 and 5.6. Still for that read-out and setting: next, `O=C(c1ccc(F)cc1)C1CCN(CCn2c(=O)[nH]c3ccccc3c2=O)CC1` [Ketanserin]: 6.8 and 5.5 and 5.4 and 3.9; `CS(=O)(=O)Nc1ccc(Cc2noc(-c3ccc4[nH]cc(CCN)c4c3)n2)cc1` [L694 247]: 6.5 and 8.1 and 7.2. In the case of `CN1CCc2ccccc2Cc2[nH]c3ccccc3c2CC1` [LE300], the “Luminescence for Screening Data” value was 5.7 and 3.6 and 5.5 and 5. Turning to `O=C(CCCCCN1CCN(c2ccccc2-c2ccccc2)CC1)NC1CCCc2ccccc21` (stereo not shown) [LP12], under setting [1], the “Luminescence for Screening Data” value was 5.4 and 4.7 and 7.1 and 5. Same read-out and setting: next, `COc1ccc(CC2NCCc3c2[nH]c2ccc(C)cc32)c(Cl)c1OC.Cl` (stereo not shown) [LY266097 hydrochloride]: 5.6 and 6.8 and 5.3 and 5.9. Same read-out and setting: the same measure for `CN1CCC(C(=O)c2cccc(NC(=O)c3c(F)cc(F)cc3F)n2)CC1` [Lasmitidan]: 5.8 and 6.4 and 6.2 and 4.1; for `CN1[C@@H](CC(=O)c2ccccc2)CCC[C@H]1C[C@H](O)c1ccccc1.CN1[C@@H](CC(=O)c2ccccc2)CCC[C@H]1C[C@H](O)c1ccccc1.O=S(=O)(O)O` [Lobeline sulfate]: 7.2 and 5 and 5.7 and 5.4; for `CN1CCN(C2=Nc3ccccc3Oc3ccc(Cl)cc32)CC1.O=C(O)CCC(=O)O` [Loxapine succinate salt]: 5.2 and 3.9 and 5.6. On the same count and under the same terms, the same measure for `Fc1ccc2c(CCNCc3cccc(OCC(F)(F)C(F)F)c3)c[nH]c2c1` [LuAE58054]: 7.5 and 10.3 and 7.4 and 7.7; for `COc1cccc([C@H](O)C2CCN(CCc3ccc(F)cc3)CC2)c1OC` [MDL 100907]: 5.4 and 6.7 and 5.2 and 5.8; for `CSc1ccc2c(c1)C(N1CCN(C)CC1)Cc1ccccc1S2` (stereo not shown) [Methiothepin]: 2.6 and 3.3 and 3 and 3.4. Turning to `CN1C[C@H](C(=O)N[C@]2(C)O[C@@]3(O)[C@@H]4CCCN4C(=O)[C@H](Cc4ccccc4)N3C2=O)C=C2c3cccc4c3c(cn4C)C[C@H]21.O=C(O)/C=C\C(=O)O` [Methylergotamine maleate], the “Luminescence for Screening Data” value under setting [1] is 42.5 and 31.9 and 34.9 and 38.8.

As for `NC(=O)C[S+]([O-])C(c1ccccc1)c1ccccc1` (stereo not shown) [Modafanil], the “Luminescence for Screening Data” value under setting [1] is 6.8 and 5.8 and 5.7 and 8.1. Still for that read-out and setting: the same measure for `NC(=O)c1ccc(F)c2c1C[C@@H](N(C1CCC1)C1CCC1)CO2` [NAD 299]: 6.3 and 5.6 and 4.8 and 5.9; for `COc1ccccc1N1CCN(CCCCN2C(=O)c3ccccc3C2=O)CC1` [NAN190]: 6.8 and 8.1 and 6.1 and 6.2. The same measure, in the same setting: next, `O=[N+]([O-])c1ccc(CSc2ncnc3c2ncn3[C@@H]2O[C@H](CO)[C@@H](O)[C@H]2O)cc1` [NBMPR]: 6.9 and 7.3 and 6.6; `O=C1CC[C@@]2(O)[C@H]3Cc4ccc(O)c5c4[C@@]2(CCN3CC2CC2)[C@H]1O5` [Naltrexone hydrochloride]: 7.8 and 5.6 and 5.9 and 6.7.

Turning to `CNc1cc(OC)c(C(=O)NC2CCN(Cc3ccccc3)C2C)cc1Cl` (stereo not shown) [Nemonapride], under setting [1], the “Luminescence for Screening Data” value was 5.7 and 7.5 and 7.3 and 6.6. Still for that read-out and setting: next, `C#CCN(C)Cc1ccccc1` [Pargyline hydrochloride]: 8.3 and 10.1 and 8.8 and 8.5; `CN1CCC(=C2c3ccccc3Sc3ccccc32)CC1` [Pimethixine]: 3.8 and 3.7; `COc1cc2nc(N3CCN(C(=O)c4ccco4)CC3)nc(N)c2cc1OC` [Prazosin hydrochloride]: 6.6 and 6.4 and 6.7 and 7.2. Take `O=c1c(O)c(-c2ccc(O)c(O)c2)oc2cc(O)cc(O)c12` [Quercetin]: under setting [1], the “Luminescence for Screening Data” value was 31.9 and 24.7 and 28.4 and 23.7. `C=C[C@H]1C[N@@]2CC[C@H]1C[C@H]2[C@H](O)c1ccnc2ccc(OC)cc12` [Quinine sulfate]: under setting [1], the “Luminescence for Screening Data” value is 7.1 and 8 and 6.1 and 7.2. For the compound `COc1cc(N)c(Cl)cc1C(=O)CCC1CCN(CCNS(C)(=O)=O)CC1.Cl` [RS 67506 hydrochloride], under setting [1], the “Luminescence for Screening Data” value is 5.6 and 9 and 4.8 and 5.5. Take `CC(C)c1cc(-c2ccc(F)c3ccccc23)nc(N)n1` [RS 127445]: the “Luminescence for Screening Data” value under setting [1] is 10.7 and 5.8 and 6.4 and 7. On to `CCN1CCC[C@H]1CNC(=O)c1c(O)c(Cl)cc(Cl)c1OC` [Raclopride], for which the “Luminescence for Screening Data” value under setting [1] is 4.1 and 6.9 and 6.4 and 5. Still for that read-out and setting: the same measure for `COC(=O)[C@H]1[C@H]2C[C@H]3c4[nH]c5ccccc5c4CCN3C[C@H]2CC[C@@H]1O` [Rauwolscine hydrochloride]: 6.9 and 7.7 and 6.8; for `COC(=O)[C@H]1[C@H]2C[C@@H]3c4[nH]c5cc(OC)ccc5c4CCN3C[C@H]2C[C@@H](OC(=O)c2cc(OC)c(OC)c(OC)c2)[C@@H]1OC` [Reserpine]: 10.3 and 8.2 and 7.3 and 7.1.

Turning to `Cc1nc2n(c(=O)c1CCN1CCC(c3noc4cc(F)ccc34)CC1)CCCC2` [Risperidone], the “Luminescence for Screening Data” value under setting [1] is 6.7 and 6 and 6.8 and 7. Regarding `Cc1nc2sccn2c(=O)c1CCN1CCC(=C(c2ccc(F)cc2)c2ccc(F)cc2)CC1` [Ritanserin], the “Luminescence for Screening Data” value under setting [1] was 5.6 and 5.8 and 6.1 and 6.3. For `CN1CCN(c2cccc3c(S(=O)(=O)c4ccccc4)c[nH]c23)CC1` [Ro4368554], under setting [1], the “Luminescence for Screening Data” value is 5.1 and 6 and 4.2 and 4.8.

In the case of `CCCCN1CCC(COC(=O)c2cc(Cl)c(N)c3c2OCCO3)CC1` [SB204070], the “Luminescence for Screening Data” value under setting [1] was 5.4 and 6 and 6.4. Same read-out and setting: the same measure for `Cn1ccc2cc3c(cc21)CCN3C(=O)Nc1cccnc1` [SB206553]: 5.8 and 7.8 and 6.3; for `CC1CCN(CC[C@H]2CCCN2S(=O)(=O)c2cccc(O)c2)CC1` [SB269970]: 7.2 and 7 and 6.5. Still for that read-out and setting: the same measure for `COc1ccc(S(=O)(=O)Nc2cc(Cl)cc(Cl)c2OC)cc1N1CCNCC1` [SB399885]: 6.4 and 5.8 and 6.1 and 6.2; for `O=S(=O)(c1ccccc1)c1cnc2c(N3CCNCC3)cccc2c1` [SB742457]: 9 and 8.4 and 8.8 and 9.7.

Regarding `CN1CCC(c2cn(C)c3ccc(OS(=O)(=O)c4c(F)cccc4F)cc23)CC1.O=C(O)C(=O)O` [SGS 518 oxalate], under setting [1], the “Luminescence for Screening Data” value was 6.7 and 6.8 and 8. On the same count and under the same terms, the same measure for `NCCc1c[nH]c2ccc(O)cc12` [Serotonin Hydrochloride]: 29.3.
